Assay results from ChEMBL document CHEMBL3632585, “Probing the S2' Subsite of the Anthrax Toxin Lethal Factor Using Novel N-Alkylated Hydroxamates” (J Med Chem, 2015).

How the values were obtained:
Lethal factor [1] = molecular target: T1, Lethal factor (Bacillus anthracis, UniProt P15917); test: Inhibition of Bacillus anthracis Lethal factor after 5 mins by FRET assay
T1 sequence (P15917 whole entry): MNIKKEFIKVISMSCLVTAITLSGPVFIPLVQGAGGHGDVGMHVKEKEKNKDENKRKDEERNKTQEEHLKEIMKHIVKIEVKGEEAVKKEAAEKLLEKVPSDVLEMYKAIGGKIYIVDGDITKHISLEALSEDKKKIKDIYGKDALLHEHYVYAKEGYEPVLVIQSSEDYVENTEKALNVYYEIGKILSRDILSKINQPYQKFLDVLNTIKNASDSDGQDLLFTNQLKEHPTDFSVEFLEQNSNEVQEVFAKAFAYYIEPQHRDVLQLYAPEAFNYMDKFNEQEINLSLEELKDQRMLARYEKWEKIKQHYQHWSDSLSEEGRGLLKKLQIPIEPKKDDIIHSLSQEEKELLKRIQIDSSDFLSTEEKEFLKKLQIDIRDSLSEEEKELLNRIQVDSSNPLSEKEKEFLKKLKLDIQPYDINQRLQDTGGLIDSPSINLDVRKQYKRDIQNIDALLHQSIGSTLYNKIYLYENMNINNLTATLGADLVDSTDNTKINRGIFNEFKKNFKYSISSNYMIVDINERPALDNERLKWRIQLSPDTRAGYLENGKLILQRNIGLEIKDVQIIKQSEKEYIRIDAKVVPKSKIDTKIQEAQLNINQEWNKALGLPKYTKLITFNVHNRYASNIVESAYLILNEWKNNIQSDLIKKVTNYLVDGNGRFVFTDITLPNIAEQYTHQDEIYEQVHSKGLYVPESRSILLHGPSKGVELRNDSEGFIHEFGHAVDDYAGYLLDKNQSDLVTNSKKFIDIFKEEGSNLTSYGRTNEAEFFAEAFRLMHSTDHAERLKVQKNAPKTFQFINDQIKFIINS

Lethal factor [2] = molecular target: T1, Lethal factor; test: Inhibition of Bacillus anthracis Lethal factor after 10 mins by mobility shift protease assay using 8 uM FITC as substrate

| Compound | IC50 (Lethal factor [1]) | IC50 (Lethal factor [2]) |
| --- | --- | --- |
| Cc1cc(S(=O)(=O)N[C@H](C)C(=O)NO)ccc1F | 1.6 µM | 0.5 µM |
| Cc1cc(S(=O)(=O)N(C)[C@H](C)C(=O)NO)ccc1F | 37 µM | 9.6 µM |
| Cc1cc(S(=O)(=O)N(Cc2cc(F)cc(F)c2)[C@H](C)C(=O)NO)ccc1F | 26 µM | 7 µM |
| Cc1cc(S(=O)(=O)N(Cc2ccc(F)cc2)[C@H](C)C(=O)NO)ccc1F | 29 µM | 11 µM |
| Cc1cc(S(=O)(=O)N(Cc2ccccc2F)[C@H](C)C(=O)NO)ccc1F | 33 µM | 9.5 µM |
| Cc1cc(S(=O)(=O)N(Cc2c(F)cccc2F)[C@H](C)C(=O)NO)ccc1F | 42 µM | 13 µM |
| Cc1cc(S(=O)(=O)N(CCOCc2ccccc2)[C@H](C)C(=O)NO)ccc1F | 57 µM | 14 µM |
| Cc1cc(S(=O)(=O)N(Cc2ccc(CNC(=O)OC(C)(C)C)cc2)[C@H](C)C(=O)NO)ccc1F | 15 µM | 3.4 µM |
| Cc1cc(S(=O)(=O)N(Cc2ccc(CCNC(=O)OC(C)(C)C)cc2)[C@H](C)C(=O)NO)ccc1F | 6.9 µM | 2.1 µM |
| Cc1cc(S(=O)(=O)N(CCCCCCCC(=O)OC(C)(C)C)[C@H](C)C(=O)NO)ccc1F | 8 µM | 3.2 µM |
| Cc1cc(S(=O)(=O)N(C(C)C)[C@H](C)C(=O)NO)ccc1F | > 100 µM | > 100 µM |
| Cc1cc(S(=O)(=O)N(Cc2ccc(N)cc2)[C@H](C)C(=O)NO)ccc1F | 29 µM | 6.4 µM |
| Cc1cc(S(=O)(=O)N(Cc2cccc(CN)c2)[C@H](C)C(=O)NO)ccc1F | 10 µM | 1.7 µM |
| Cc1cc(S(=O)(=O)N(Cc2ccc(CCN)cc2)[C@H](C)C(=O)NO)ccc1F | 8.9 µM | 1.2 µM |
| Cc1cc(S(=O)(=O)N(CCCCCCN)[C@H](C)C(=O)NO)ccc1F | 4.4 µM | 1.1 µM |
| Cc1cc(S(=O)(=O)N(CCCCCN)[C@H](C)C(=O)NO)ccc1F | 8.2 µM | 1.3 µM |
| Cc1cc(S(=O)(=O)N(CCCCN)[C@H](C)C(=O)NO)ccc1F | 7.4 µM | 1.8 µM |
| Cc1cc(S(=O)(=O)N(CCCN)[C@H](C)C(=O)NO)ccc1F | 12 µM | 3.7 µM |
| Cc1cc(S(=O)(=O)N(CCCCCCCC(=O)O)[C@H](C)C(=O)NO)ccc1F | 91 µM | 47 µM |
| CC(=O)NCc1ccc(CN([C@H](C)C(=O)NO)S(=O)(=O)c2ccc(F)c(C)c2)cc1 | 16 µM | 3.5 µM |
| CC(=O)NCc1cccc(CN([C@H](C)C(=O)NO)S(=O)(=O)c2ccc(F)c(C)c2)c1 | 15 µM | 4.7 µM |
| CC(=O)NCCc1ccc(CN([C@H](C)C(=O)NO)S(=O)(=O)c2ccc(F)c(C)c2)cc1 | 17 µM | 3.2 µM |
| CC(=O)NCCCCCCN([C@H](C)C(=O)NO)S(=O)(=O)c1ccc(F)c(C)c1 | 14 µM | 3.9 µM |
| CC(=O)NCCCCCN([C@H](C)C(=O)NO)S(=O)(=O)c1ccc(F)c(C)c1 | 19 µM | 4.3 µM |
| CC(=O)NCCCN([C@H](C)C(=O)NO)S(=O)(=O)c1ccc(F)c(C)c1 | 117 µM | 30 µM |
| CNC(=O)CCCCCCCN([C@H](C)C(=O)NO)S(=O)(=O)c1ccc(F)c(C)c1 | 19 µM | 9.3 µM |
| CC(=O)Nc1cccc(CN([C@H](C)C(=O)NO)S(=O)(=O)c2ccc(F)c(C)c2)c1 | 21 µM | 4.8 µM |
| Cc1cc(S(=O)(=O)N(Cc2ccc(CN)cc2)[C@H](C)C(=O)NO)ccc1F | 5.6 µM | 1.3 µM |
